Test results: patent US7772383B2, “Chemical PCR: Compositions for enhancing polynucleotide amplification reactions” (The Trustees of Princeton University, priority 2002, dated 2010)
Like-named read-outs stand apart in the source and are kept apart here.

Assays:
[1] = tested on: bovine brain glycolipid transfer protein (GTP) cDNA (660 bp); test: PCR amplification of GTP cDNA with diol additives, standard cycling; format: biochemical; conditions: for amplification of GTP over annealing temperature gradients (in words): 95° C. denaturing temperature
Procedure: (§1) Amplification reactions were carried out under the following general conditions. Those skilled in the art will appreciate, however, that to the extent that the conditions (set forth in this application) required for specific experiments described in this example were inconsistent with the following general conditions, limited exceptions to the following general conditions were made The general conditions were as follows: 10 Mm Tris-HCl (Ph 8.8), 50 Mm KCl, 1.5 Mm MgCl2, 0.01% (w/v) gelatin, 0.2 Um primers, 0.06 ng/ul template, 0.2 Mm each Dntp, 0.04 U/ul Taq polymerase. The templates used were bovine brain N-WASP cDNA (1518 bp), a 996 bp segment of human myeloid leukocyte c-jun cDNA, a 511 bp segment of human prostate-specific membrane antigen (PSM) cDNA, and bovine brain glycolipid transfer protein (GTP) cDNA (660 bp). cDNA synthesis was carried out using the FIRST-STRAND® RT-PCR kit from Stratagene on the respective mRNAs purchased from Clontech. All amplification reactions for gene were carried out using a single master batch of cDNA. Taq polymerase and dNTPs were obtained from Stratagene. Primers were obtained from Genosys. Primer melting temperatures (Tms) were calculated using the Genosys oligo calculator program. The sequences of the primers were as follows.
(§2) Polymerase chain reactions for the N-WASP gene were conducted on a ROBOCYCLER® Gradient 40 thermal cycler from Stratagene using 100 ul solutions in 600 ul thin-walled tubes. For expediency, amplification of c-jun, PSM and GTP was carried out in a ROBOCYCLER® Gradient 96 thermal cycler from Stratagene using 50 ul solutions in 200 ul thin-walled tubes. Prior to Taq polymerase addition, a hotstart protocol was carried out that consisted of an initial cycle of 95° C. for 5 minutes (11) to ensure complete first-strand separation, followed by a cycle of 54° C. for 5 minutes. Amplifications were run for 30 cycles. […] Extension was done at 72° C. for periods depending on target length: 2 minutes for N-WASP, 1.5 minutes for c-jun and GTP, and 1 minute for PSM. Annealings were carried out either at fixed concentrations of additives using temperature gradients of 38-56° C. for N-WASP and 44-58° C. for the other targets, or at varying concentrations of additives using fixed temperatures of 41° C. for N-WASP, 50° C. for c-jun and PSM, and 54° C. for GTP.
(§3) Amplification products were analyzed by agarose gel electrophoresis on 0.8% agarose gels in which 20 ul reaction products were loaded with 4 ul loading buffer. Gels were stained with ethidium bromide, visualized on a UV transilluminator (Fisher), and documented by photography. Densitometric quantitation of amplification products was carried out using IMAGE SCANNER® and IMAGE MASTER® software from Amersham Pharmacia. Background correction was done using the software's rolling disc method.
Investigations into the PCR enhancing capabilities of diol cosolvents were carried out using GTP as the primary template. […] The standard protocol for annealing temperature and concentration gradient screening was again followed. […] These cosolvents were thus omitted from further studies. The optimal annealing temperatures for the remaining compounds were: ethylene glycol, 1,2-propanediol, 1,3-propanediol and cis-1,2-cyclopentanediol—58° C.; 1,2-butanediol—54° C.; 1,3-butanediol and 1,4-butanediol—[…]; 2,4-pentanediol, 1,5-pentanediol, 1,6-hexanediol and MPD—56° C.

[2] = tested on: 511 bp segment of human prostate-specific membrane antigen (PSM) cDNA; test: PCR amplification of PSM cDNA with diol additives, standard cycling; format: biochemical; conditions: for Specificity / Effective range / Potency: PSM; for Specificity: best specificity (densitometric volume of target as percent of total volume) over the effective range; for Effective range: concentration interval over which densitometric volume of target is at least 50% of maximum; for Potency: normalized maximum densitometric volume of target band: 1,3-Butanediol = 1
Procedure: as §1, §2, §3
(§4) With PSM, 1,2-propanediol, 1,2-butanediol, 1,3-butanediol, 1,4-butanediol and glycerol were tested; with c-jun, ethylene glycol and 1,3-propanediol were also tested in addition to these compounds. […] The following additive concentrations were tested using these annealing temperatures: 1,2-propanediol—0.5, 0.8, 1.1, 1.4, 1.7 and 2.0M; 1,2-butanediol—0.1, 0.3, 0.5, 0.6, 0.7 and 0.8M; 1,3-butanediol—0.1, 0.3, 0.5, 0.6, 0.9, 1.1, 1.2M; 1,4-butanediol—0.1 to 1.1M in 0.2M intervals; 1,5-pentanediol—0.1-0.6M in 0.1M intervals; glycerol—0.5 to 1.9M in 0.2M intervals, and 2.2M.

[3] = tested on: 996 bp segment of human myeloid leukocyte c-jun cDNA; test: PCR amplification of c-jun cDNA with diol additives, standard cycling; format: biochemical
Procedure: as §1, §2, §3, §4

[4] = tested on: 1026 by segment of the Thy-1 gene from rat genomic DNA; format: biochemical
[5] = tested on: 50% GC DNA; test: Predicted cosolvent-induced Tm depression of DNA; format: physicochemical; conditions: 1.0M 1,5-pentanediol, 0.7M 1,6-hexanediol, linearity not verified
Procedure: The compounds utilized in the first phase (testing using 1.0M 1,5-pentanediol and 0.7M 1,6-hexanediol at temperatures between 46 and 62° C.) were chosen on the basis of the following rationale. The optimal additive for a low temperature PCR reaction is one that lowers the melting temperature of DNA as much as possible while minimally compromising polymerase activity. 1,5-Pentanediol and 1,6-hexanediol are both powerful DNA melting agents. In addition, it was found in the 62° C. activity studies that the rate of activity decline with concentration of 1,5-pentanediol was roughly equivalent to that of 1,2-butanediol, despite the fact that the former is a much stronger DNA denaturant. 1.0M 1,5-pentanediol and 0.7M 1,6-hexanediol are predicted to lower the Tm of a 50% GC DNA by approximately the same amount: 19° C.

[6] = target: T1, Taq polymerase (Thermus aquaticus, UniProt P19821); test: Taq polymerase activity assays at low temperature in the presence of additives; format: biochemical; conditions: 1.0M 1,5-pentanediol, 0.7M 1,6-hexanediol; for Activity of Taq polymerase: normalized to activity of control at 62° C.; for Activation: change in Taq activity versus control
T1 construct: purchased Stratagene
Procedure: The measured polymerase activity, then, is in fact a function of two variables—temperature and additive concentration. The plot of measured activity versus temperature and additive concentration is a two-dimensional surface. While a truly comprehensive search for maximal polymerase activity would entail screening this entire surface, the number of experiments required to do so would of course be impractical. Therefore, polymerase activity was measured first as a function of temperature in the absence of additives and at one given, high additive concentration. The temperature that yielded the maximum activity of the polymerase at that concentration was then targeted for concentration gradient studies.
First, polymerase activity assays were carried out in the absence of additives and in the presence of 1.0M 1,5-pentanediol and 0.7M 1,6-hexanediol at temperatures between 46 and 62° C. Next, polymerase activity was studied at 53° C. in the presence of concentration gradients of 1,5-pentanediol, 2-pyrrolidone, sulfolane and tetramethylene sulfoxide. The concentrations tested were: 1,5-pentanediol: 1.0, 1.3, 1.5, 2.25, 3.0 and 3.5M; 2-pyrrolidone: 1.25, 1.5, 2.0 and 3.9M; sulfolane: 1.0, 1.5, 2.0 and 2.75M, tetramethylene sulfoxide: 1.0, 1.5, 2.0 and 3.0M.

[7] = tested on: GC-rich segment of crab satellite DNA; conditions: literature (Varadaraj and Skinner, 1994); cited from earlier work
[8] = when functional; general statement on prior use; cited from earlier work
[9] = GTP, 95° C. denaturing, 72° C. extension, normalized maximum densitometric volume of target band: 1,5-Pentanediol = 1
[10] = GTP, concentration interval over which densitometric volume of target band is at least 50% of maximum volume
[11] = c-jun, concentration interval over which densitometric volume of target band is at least 50% of maximum volume
[12] = c-jun, normalized maximum densitometric volume of target band: 1,5-Pentanediol = 1

T1 sequence (P19821 whole entry): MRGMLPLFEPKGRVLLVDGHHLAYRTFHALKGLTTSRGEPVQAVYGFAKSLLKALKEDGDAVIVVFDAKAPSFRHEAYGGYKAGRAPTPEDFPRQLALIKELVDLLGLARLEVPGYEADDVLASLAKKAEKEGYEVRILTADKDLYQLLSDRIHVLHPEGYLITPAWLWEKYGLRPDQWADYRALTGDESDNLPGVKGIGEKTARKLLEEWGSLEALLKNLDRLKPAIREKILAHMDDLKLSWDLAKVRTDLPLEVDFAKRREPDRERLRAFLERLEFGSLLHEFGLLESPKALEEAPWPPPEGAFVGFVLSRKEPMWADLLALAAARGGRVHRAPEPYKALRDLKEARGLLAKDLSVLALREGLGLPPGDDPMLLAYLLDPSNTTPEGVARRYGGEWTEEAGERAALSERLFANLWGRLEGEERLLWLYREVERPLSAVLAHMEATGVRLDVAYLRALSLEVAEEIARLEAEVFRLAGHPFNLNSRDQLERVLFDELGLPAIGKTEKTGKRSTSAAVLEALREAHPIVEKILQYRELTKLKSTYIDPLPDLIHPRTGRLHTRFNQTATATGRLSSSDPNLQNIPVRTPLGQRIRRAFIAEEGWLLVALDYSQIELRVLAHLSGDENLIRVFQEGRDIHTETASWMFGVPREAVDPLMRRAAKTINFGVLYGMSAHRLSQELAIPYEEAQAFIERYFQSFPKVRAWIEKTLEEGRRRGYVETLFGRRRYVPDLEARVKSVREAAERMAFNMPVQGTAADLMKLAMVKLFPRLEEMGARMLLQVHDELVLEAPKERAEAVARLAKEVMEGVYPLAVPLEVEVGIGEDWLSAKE

SMILES	Potency [1, 9]	Effective range [1, 10] [M]	Specificity [2] [%]	Effective range [2] [M]	Potency [2]	Effective range [3, 11] [M]	Potency [3, 12]	also measured
O[C@@H]1CCC[C@H]1O (relative stereo) [trans-1,2-Cyclopentanediol]	–	–	–	–	–	–	–	amplification of GTP over annealing temperature gradients (in words) ([1]; GTP): inhibitory at all concentrations
CCCCC(O)CO (stereo not drawn) [1,2-Hexanediol]	–	–	–	–	–	–	–	amplification of GTP over annealing temperature gradients (in words) ([1]; GTP): detectable amplification only in very narrow concentration ranges
CCCC(O)CO (stereo not drawn) [1,2-Pentanediol]	–	–	–	–	–	–	–	amplification of GTP over annealing temperature gradients (in words) ([1]; GTP): detectable amplification only in very narrow concentration ranges
CC(O)CO (stereo not drawn) [1,2-Propanediol]	0.64	0.52 to 1.79	89	0.65 to 1.40	0.75	0.43 to 1.87	0.60	–
CC(O)CCO (stereo not drawn) [1,3-Butanediol]	0.85	0.29 to 0.96	94	0.55 to 1.03	1.00	0.40 to 1.12	0.77	PSM Potency ([2]; comparative standard 95/50/72° C., 0.8 M, best result under conventional conditions, normalization reference): 1.00; PSM Specificity ([2]; comparative standard 95/50/72° C., 0.8 M, densitometric volume of target band as percent of total volume): 94%; amplification yield of Thy-1 genomic DNA (in words) [4]: particularly dramatic improvement
OCCCO [1,3-Propanediol]	0.39	0.31 to 1.18	–	–	–	0.59 to 0.96	0.25	–
OCCCCO [1,4-Butanediol]	–	–	92	0.38 to 0.80	0.65	–	–	Effective range [1]: 0.16 to 0.77 M; Potency [1]: 0.87; Effective range [3]: 0.35 to 0.91 M; Potency [3]: 0.82
OCCCCCCO [1,6-Hexanediol]	0.80	0.13 to 0.29	–	–	–	–	–	lowering of the Tm of a 50% GC DNA [5]: ~19 °C; Activity of Taq polymerase ([6]; 47° C.): 0.24; Activation ([6]; 47° C.): −27%; Activity of Taq polymerase ([6]; 48° C.): 0.36; Activation ([6]; 48° C.): −12%; Activity of Taq polymerase ([6]; 49° C.): 0.57; Activation ([6]; 49° C.): +16%; Activity of Taq polymerase ([6]; 50° C.): 0.60; Activation ([6]; 50° C.): +20%; Activity of Taq polymerase ([6]; 51° C.): 0.60; Activation ([6]; 51° C.): +13%; Activity of Taq polymerase ([6]; 52° C.): 0.64; Activation ([6]; 52° C.): +25%; Activity of Taq polymerase ([6]; 53° C.): 0.64; Activation ([6]; 53° C.): +12%; Activity of Taq polymerase ([6]; 54° C.): 0.60; Activation ([6]; 54° C.): −2%; Activity of Taq polymerase ([6]; 55° C.): 0.51; Activation ([6]; 55° C.): −27%
CC(O)CC(C)O (stereo not drawn) [2,4-Pentanediol]	0.61	0.25 to 0.70	–	–	–	–	–	–
CC(O)CC(C)(C)O (stereo not drawn) [2-Methyl-2,4-Pentanediol]	0.45	0.12 to 0.33	–	–	–	–	–	–
OCCO [Ethylene glycol]	–	–	–	–	–	–	–	Effective range [1]: 1.55 to 3.55 M; Potency [1]: 0.62; amplification yield of Thy-1 genomic DNA (in words) [4]: improve amplification yield; Effective range [3]: 0.71 to 3.10 M; Potency [3]: 0.58
OCC(O)CO [Glycerol, reference compound]	0.28	0.26 to 1.17	83	1.10 to 1.63	0.22	0.50 to 1.25	0.13	enhancement of crab satellite DNA amplification relative to that provided by DMSO [7]: less than 25%; concentrations at which a positive effect on PCR is usually found [8]: 5-15%
O[C@@H]1CCC[C@@H]1O [cis-1,2-Cyclopentanediol]	0.91	0.13 to 0.35	–	–	–	–	–	–
